The results in this text go back to patent US20150133411A1, “COMPOUNDS WITH TRPV4 ACTIVITY, COMPOSITIONS AND ASSOCIATED METHODS THEREOF” (The University of Utah Research Foundation, priority 2012, published 2015).

In test [1] the test system is retinal ganglion cells. In words: Hypotonic swelling-induced calcium influx into retinal ganglion cells (Fura-2). In kind it is cell-based. To be noted: FIG. 17C. The text has this:
Cells were labeled with fluorescent calcium indicator dye Fura-2 and exposed to hypotonic solutions in which extracellular sodium was replaced by the osmotically inert substance mannitol, as described in […] et al. (J Neurosci. 2011 May 11; 31(19):7089-101; PMID 21562271).

Test [2] has as its system retinal ganglion cells. The experiment in a line: RGC density (TuJ-1+, CFP+) in retinal wholemounts of MB-injected mice. In kind it is in vivo, mouse. On the procedure: FIG. 2 confirms that the mouse model for glaucoma causes RGC degeneration. Specifically, microbeads (MBs) were injected into the anterior chamber of a mouse eye. The MBs increase intraocular IOP above 15 mm Hg by blocking outflow of the aqueous humor within the anterior chamber of the eye. MBs were reinjected as needed to maintain a high IOP, typically one injection every two weeks. Contralateral eyes were injected intraocularly with the vehicle PBS (phosphate buffered saline) as controls. […] IOP levels were measured at least twice weekly before and after intraocular injections. After injections, mice recovered for 48 hours before IOP measurements resumed. Following 4 or 8 weeks of IOP elevation, mice were intracardially perfused with 4% paraformaldehyde in 1× PBS to fix the retinas. Retinas were then removed and processed for immunohistochemistry (IHC). Whole retinas were rinsed with 1× PBS three times at room temperature then incubated in blocking buffer (1× PBS+1% BSA). […] The density of RGCs was imaged with a confocal microscope (Zeiss LSM 510) and quantified by counting NeuN-, CFP- and/or Tuj-1-labeled somata in the RGC layer of the retinal wholemount preparation. […]
RGD density was quantified in retinas isolated from TuJ-1^+ mice and transgenic Thy1-CRP^+ transgenic mice that had been injected with either MBs or vehicle (PBS) then dosed with either compound 1 or vehicle (PBS). […] TuJ-1 was quantified by immunohistochemistry using a Tuj-1-specific antibody conjugated to a fluorescent Alexa 488 or Alexa 594 secondary antibody. […] For fluorescence immunocytochemistry, retinal wholemounts were washed in PBS, then placed for 30 min. to 1 hour in blocking solution (10 ml PBS, 30 μL Triton-X 100, 100 mg bovine serum albumin, 100 μL 10% w/v Na azide solution) in OCT (Ted Pella, Redding, Pa.). […]

Test [3] relates to retinal neurons (RGCs) and glia (Müller cells). The experiment in a line: Hypotonic stimuli: cell swelling (change in cell area) and [Ca++]i. In kind it is cell-based. The text has this:
FIG. 18A illustrates the effect of hypotonic stimuli on cell swelling as measured by change in cell area. Hypotonic stimuli were generated by replacing extracellular sodium levels to lower osmolarity from 300 mOsm to 190 mOsm.

Test [4] concerns retinal ganglion cells. The experiment in a line: In vivo intraocular injection of GSK, NeuN+ RGC count. As to conditions: intraocular GSK, 48 hours. On the procedure:
In this experiment, GSK (100-300 nM) was injected intraocularly with a Hamilton syringe. Retinas were isolated after 48 hours, fixed and labeled with the RGC marker antibody NeuN. NeuN-immunopositive somata in the ganglion cell layer, shown in the panel on the right, were counted. The bar graph represents quantification of NeuN^+ cells in the indicated experimental groups.

Another test has as its system MB model of glaucoma. In words: IOP time course after single eye drop in MB model of glaucoma. In kind it is in vivo, mouse. As to conditions: single dose eye drop. On the procedure: Specifically, microbeads (MBs) were injected into the anterior chamber of a mouse eye as described in Example 2 with PBS-injected eyes used as controls. Compound 1 (10 mg/kg body weight) (or PBS vehicle) was injected intraperitoneally (IP). […] IOP was measured in mice between 10:00 AM and 1:00 PM with the TonoLab rebound tonometer (Colonial Medical Supply, Franconia, NH/Tyolat, Helsinki, Finland). Mice were sedated with IP injection of Avertin with final amount calculated by weight (e.g., 0.5 ml for 21-24 g animals). Animals were placed on a jack stand platform and the tonolab was clamped on a ring stand and centered onto the mid-cornea. During measurements animal were neither restrained nor touched. Each eye was measured twenty consecutive times, the highest and lowest values were discarded and the values were averaged.
FIG. 9 illustrates the short-term effects of a single dose of Compound 1 (eye drop) in the MB model of glaucoma. IOP was measured as described in Example 3 at the indicated time points after receiving a drop of Compound 1. Compound 1 reduced IOP beginning at 1 hour after dosing and continued through 6 hours after dosing.
FIG. 10 illustrates a time course of Compounds 1, 2, 5 and Compound 2-HCl as well as a positive control compound, timolol, with regard to inhibition of IOP. The experiment was conducted as described in Example 9. Each of the TRPV4 antagonists reduced IOP with a similar time course. Specifically, Compounds 1, 2, 5 and Compound 2-HCl reduced IOP for at least 6 hours after dosing.
FIG. 11 illustrates a time course of Compound 2-HCl activity. The experiment was conducted as described in Example 9. […] 2
FIG. 12 illustrates a comparison of the time course of Compound 2-HCl and Compound 5. The experiment was conducted as described in Example 9.

Structures are written as SMILES.

For `Cc1c(C(=O)Nc2cccc(C(F)(F)F)c2)cc(-c2ccccc2)n1CCCN1CCOCC1` [Compound 1, N-(3-(trifluoromethyl)phenyl)-2-methyl-1-(3-morpholinopropyl)-5-phenyl-1H-pyrrole-3-carboxamide], the “pressure-dependent influx of calcium in RGCs” value with retinal ganglion cells [1] is “prevents”. Also, the “TuJ-1+ cells in alpha, beta and omega regions” value with retinal ganglion cells [2] (MB-injected mice) is on record as “rescues RGCs across all regions of the retina”. In addition, in the test on retinal ganglion cells [2] (MB-injected mice, 8 weeks of increased IOP), the “density of RGCs (TuJ-1+ and Thy1:CFP+ cells)” value is reported as “RGC loss was rescued”. Also, the “CFP+ cells in alpha, beta and omega regions” value in the test on retinal ganglion cells [2] (Thy1-CFP transgenic mice, MB-injected) was “rescues RGCs across all regions of the retina”. The “hypotonic stimuli-induced increase in [Ca++]i” value in test [3] (FIG. 18B) is recorded as “inhibited”. The “cell swelling (change in cell area)” value in test [3] (hypotonic stimuli, 300 mOsm to 190 mOsm) is “prevented hypotonic stimuli-mediated cell swelling to the same extent as BAPTA-AM”. For the same compound, the “effect on GSK-induced degeneration of RGC” value in the test with retinal ganglion cells [4] is on record as “blocked”. In the test on MB model of glaucoma, the “time after dosing at which IOP reduction begins” value turned out to be 1 h.
